Results on five compounds are retold here after PubChem BioAssay AID1259407 (Chemical Carcinogenesis Research Information System (CCRIS), 2018).

Calls of active or inactive are those of the source. No rule for the calls is given here.

For this data set, the system named is CCRIS mutagenicity, Ames/micronucleus/aberration tests. The experiment in a line: CCRIS mutagenicity studies.
[1] abbreviates: Test System: AMES SALMONELLA TYPHIMURIUM, Strain/Indicator: TA100, Metabolic Activation: NONE, Method: STANDARD PLATE.

On to `COc1ccccc1[N+](=O)[O-]`, for which the mutagenic call (End Point: IN VITRO CHROMOSOMAL ABERRATIONS, Test System: CHINESE HAMSTER OVARY CELLS, Metabolic Activation: RAT, LIVER, S-9, AROCLOR 1254) was “active; positive; precipitation occurred at all doses”; the mutagenic call (End Point: IN VITRO CHROMOSOMAL ABERRATIONS, Test System: CHL CELLS, Metabolic Activation: RAT, LIVER, S-9, SODIUM PHENOBARBITAL AND 5,6-BENZOFLAVONE) was “active; positive (structural changes)”; the mutagenic call (Test System: AMES SALMONELLA TYPHIMURIUM, Strain/Indicator: TA97, Metabolic Activation: HAMSTER LIVER S-9, AROCLOR 1254 (10%), Method: PREINCUBATION) is “inactive; negative”; the mutagenic call (Test System: AMES SALMONELLA TYPHIMURIUM, Strain/Indicator: TA97, Metabolic Activation: NONE, Method: PREINCUBATION) is “inactive; negative”; the mutagenic call (Test System: AMES SALMONELLA TYPHIMURIUM, Strain/Indicator: TA97, Metabolic Activation: RAT LIVER S-9, AROCLOR 1254 (10%), Method: PREINCUBATION) is “inactive; negative”; the mutagenic call (Test System: AMES SALMONELLA TYPHIMURIUM, Strain/Indicator: TA98, Metabolic Activation: HAMSTER LIVER S-9, AROCLOR 1254 (10%), Method: PREINCUBATION) was “inactive; negative”. Further, the mutagenic call (Test System: AMES SALMONELLA TYPHIMURIUM, Strain/Indicator: TA98, Metabolic Activation: RAT LIVER S-9, AROCLOR 1254 (10%), Method: PREINCUBATION) was “inactive; negative”; the mutagenic call (Test System: AMES SALMONELLA TYPHIMURIUM, Strain/Indicator: TA98, Metabolic Activation: RAT LIVER S-9, PHENOBARBITAL AND BETA-NAPHTHOFLAVONE, Method: PREINCUBATION) is “inactive; negative”; the mutagenic call (Test System: AMES SALMONELLA TYPHIMURIUM, Strain/Indicator: TA98, Metabolic Activation: RAT, LIVER, S-9, KANECHLOR 500, Method: PREINCUBATION) was “inactive; negative”; the mutagenic call (Test System: AMES SALMONELLA TYPHIMURIUM, Strain/Indicator: TA100, Metabolic Activation: HAMSTER LIVER S-9, AROCLOR 1254 (10%), Method: PREINCUBATION) was “active; positive”; the mutagenic call (Test System: AMES SALMONELLA TYPHIMURIUM, Strain/Indicator: TA100, Metabolic Activation: HAMSTER, LIVER, S-9, AROCLOR 1254, FLAVIN MONONUCLEOTIDE, Method: PREINCUBATION) was “inactive; negative”; the mutagenic call (Test System: AMES SALMONELLA TYPHIMURIUM, Strain/Indicator: TA100, Metabolic Activation: HAMSTER, LIVER, S-9, AROCLOR 1254, Method: PREINCUBATION) is “inactive; negative”. The mutagenic call was “active; positive” (Test System: AMES SALMONELLA TYPHIMURIUM, Strain/Indicator: TA100, Metabolic Activation: RAT LIVER S-9, AROCLOR 1254 (10%), Method: PREINCUBATION); “active; positive” (Test System: AMES SALMONELLA TYPHIMURIUM, Strain/Indicator: TA100, Metabolic Activation: RAT LIVER S-9, PHENOBARBITAL AND BETA-NAPHTHOFLAVONE, Method: PREINCUBATION); “inactive; negative” (Test System: AMES SALMONELLA TYPHIMURIUM, Strain/Indicator: TA100, Metabolic Activation: RAT, LIVER, S-9, AROCLOR 1254, FLAVIN MONONUCLEOTIDE, Method: PREINCUBATION); “active; positive” (Test System: AMES SALMONELLA TYPHIMURIUM, Strain/Indicator: TA100, Metabolic Activation: RAT, LIVER, S-9, AROCLOR 1254, Method: STANDARD PLATE); “active; positive” (Test System: AMES SALMONELLA TYPHIMURIUM, Strain/Indicator: TA100, Metabolic Activation: RAT, LIVER, S-9, KANECHLOR 500, Method: PREINCUBATION); “inactive; negative” (Test System: AMES SALMONELLA TYPHIMURIUM, Strain/Indicator: TA1535, Metabolic Activation: HAMSTER LIVER S-9, AROCLOR 1254 (10%), Method: PREINCUBATION). The mutagenic call was “inactive; negative” (Test System: AMES SALMONELLA TYPHIMURIUM, Strain/Indicator: TA1535, Metabolic Activation: NONE, Method: PREINCUBATION); “inactive; negative” (Test System: AMES SALMONELLA TYPHIMURIUM, Strain/Indicator: TA1535, Metabolic Activation: RAT LIVER S-9, AROCLOR 1254 (10%), Method: PREINCUBATION); “inactive; negative” (Test System: AMES SALMONELLA TYPHIMURIUM, Strain/Indicator: TA1535, Metabolic Activation: RAT LIVER S-9, PHENOBARBITAL AND BETA-NAPHTHOFLAVONE, Method: PREINCUBATION); “inactive; negative” (Test System: AMES SALMONELLA TYPHIMURIUM, Strain/Indicator: TA1537, Metabolic Activation: HAMSTER LIVER S-9, AROCLOR 1254 (10%), Method: PREINCUBATION); “inactive; negative” (Test System: AMES SALMONELLA TYPHIMURIUM, Strain/Indicator: TA1537, Metabolic Activation: NONE, Method: PREINCUBATION); “inactive; negative” (Test System: AMES SALMONELLA TYPHIMURIUM, Strain/Indicator: TA1537, Metabolic Activation: RAT LIVER S-9, AROCLOR 1254 (10%), Method: PREINCUBATION). The mutagenic call is, setting by setting: (Test System: AMES SALMONELLA TYPHIMURIUM, Strain/Indicator: TA1537, Metabolic Activation: RAT LIVER S-9, PHENOBARBITAL AND BETA-NAPHTHOFLAVONE, Method: PREINCUBATION) “inactive; negative”; (Test System: AMES SALMONELLA TYPHIMURIUM, Strain/Indicator: TA1538, Metabolic Activation: NONE, Method: PREINCUBATION) “active; positive”; (Test System: E.COLI, Strain/Indicator: WP2UVRA, Metabolic Activation: NONE, Method: PREINCUBATION) “inactive; negative”; (Test System: E.COLI, Strain/Indicator: WP2UVRA, Metabolic Activation: RAT LIVER S-9, PHENOBARBITAL AND BETA-NAPHTHOFLAVONE, Method: PREINCUBATION) “inactive; negative”.

Take `COc1cc(/C=C/c2ccccc2)oc(=O)c1`: the mutagenic call (Test System: Mouse lymphoma cells, Strain/Indicator: L5178Y ( tk+/tk-), Metabolic Activation: Human, Liver, S-9, Method: Suspension/plate) was “inactive; negative”.

For `CS(=O)(=O)O`, the mutagenic call was “inactive; negative” under setting [1]; “inactive; negative” (Test System: AMES SALMONELLA TYPHIMURIUM, Strain/Indicator: TA100, Metabolic Activation: RAT, LIVER, S-9, AROCLOR 1254 (10%), Method: STANDARD PLATE); “inactive; negative” (Test System: AMES SALMONELLA TYPHIMURIUM, Strain/Indicator: TA1535, Metabolic Activation: NONE, Method: STANDARD PLATE); “inactive; negative” (Test System: AMES SALMONELLA TYPHIMURIUM, Strain/Indicator: TA1535, Metabolic Activation: RAT, LIVER, S-9, AROCLOR 1254 (10%), Method: STANDARD PLATE).

Regarding `C1=Cc2c3ccc4cccc5ccc(c6cccc1c26)c3c45`, the mutagenic call is “active; positive” (Test System: AMES SALMONELLA TYPHIMURIUM, Strain/Indicator: TA98, Metabolic Activation: RAT, LIVER, S-9, AROCLOR 1254 (0.55 MG), Method: STANDARD PLATE); “active; positive” (Test System: AMES SALMONELLA TYPHIMURIUM, Strain/Indicator: TA100, Metabolic Activation: RAT, LIVER, S-9, AROCLOR 1254 (0.55 MG), Method: STANDARD PLATE); “active; positive” (Test System: AMES SALMONELLA TYPHIMURIUM, Strain/Indicator: TA104, Metabolic Activation: RAT, LIVER, S-9, AROCLOR 1254 (0.55 MG), Method: STANDARD PLATE); “inactive; negative” (Test System: AMES SALMONELLA TYPHIMURIUM, Strain/Indicator: TA1535, Metabolic Activation: RAT, LIVER, S-9, AROCLOR 1254 (0.55 MG), Method: STANDARD PLATE); “active; positive” (Test System: AMES SALMONELLA TYPHIMURIUM, Strain/Indicator: TA1537, Metabolic Activation: RAT, LIVER, S-9, AROCLOR 1254 (0.55 MG), Method: STANDARD PLATE); “active; positive” (Test System: AMES SALMONELLA TYPHIMURIUM, Strain/Indicator: TA1538, Metabolic Activation: RAT, LIVER, S-9, AROCLOR 1254 (0.55 MG), Method: STANDARD PLATE).

As for `Cc1ccc(CN2C3c4ccccc4-c4ccccc4C32)cc1` (stereo not given), the mutagenic call under setting [1] is “active; positive”.
